# According to US20080268078A1, “Composition for inhibiting nitric oxide and/or prostaglandin E2 synthesis and method for inhibiting inflammation” (Yangsen Biotechnology Co., Ltd., priority 2007, published 2008):
# pIC50: −log10 of the molar value. Like-named read-outs stand apart in the source and are kept apart here.
# Legend:
# Assay type in all cases: cell-based, murine
# [1] = tested on: nitric oxide synthesis in RAW 264.7 cells; experiment: Suppression of nitric oxide synthesis (nitrite, Griess reagent) in LPS-stimulated RAW 264.7 cells; conditions: Mus musculus, read-out: IC50 (inhibitory concentration at 50%) of nitric oxide synthesis
# Description: (§1) The murine macrophage/monocyte RAW 264.7 cells were obtained from the American Type Culture Collection (ATCC) and maintained in Dulbecco's modified Eagle's medium (DMEM) with 10% fetal bovine serum at 37° C. in 5% CO2 humidified air. In this example, cells were plated at a density of 10^6 cells/ml in 96-well plates for 24 hours, and then stimulated with LPS (100 ng/ml) in the presence of different concentrations of butylidene phthalide, citronellol, or geraniol. After 20 hours, the supernatant of the medium was collected and analyzed. In nitric oxide analysis, the concentration of butylidene phthalide was 250 μM, 500 μM, and 1000 μM, the concentration of citronellol was 50 μM, 500 μM, and 750 μM, and the concentration of geraniol was 50 μM, 500 μM, 750 μM, and 1000 μM, separately. In the control group, the cells were not treated with butylidene phthalide, citronellol, or geraniol. Because nitric oxide was unstable, nitrite was detected (Green et al., 1981; Kang et al., 1999a). 80 μl of the culture medium were mixed with an equal volume of Griess reagent (0.1% naphthylethylenediamine dihydrochloride and 1% sulfanilamide in 5% phosphoric acid), and then the absorbance at 550 nm was measured. The nitrite concentration was determined using a curve calibrated on sodium nitrite standards. […] Referring to FIGS. 1a-1c, butylidene phthalide, citronellol, and geraniol can suppress the synthesis of nitric oxide, wherein the suppression ability of citronellol was better than butylidene phthalide or geraniol, separately.
# [2] = tested on: prostaglandin E2 synthesis in RAW 264.7 cells; experiment: Suppression of prostaglandin E2 synthesis (EIA) in LPS-stimulated RAW 264.7 cells; conditions: Mus musculus, read-out: IC50 of prostaglandin E2 synthesis
# Description: as §1
# The same procedure carried out in Example 1 was repeated with the exception that the detection of the nitric oxide was changed to detect prostaglandin E2 by prostaglandin E2-monoclonal enzyme immunoassay kit (EIA, Cayman Chem., Ann Arbor, Mich.). The concentration of butylidene phthalide was 5 μM, 50 μM, 250 μM, 500 μM, and 1000 μM, the concentration of citronellol was 50 μM, 500 μM, and 750 μM and the concentration of geraniol was 50 μM, 500 μM, and 750 μM, separately. […]
# [3] = tested on: RAW264.7 cell; experiment: Cell viability assay (MTT); conditions: 50 μM to 1000 μM (citronellol to 750 μM), LPS-stimulated, 20 hours
# [4] = RAW264.7, RAW 264.7 cells, LPS 100 ng/ml, 20 hours, nitrite by Griess reagent
# [5] = RAW264.7, RAW 264.7 cells, LPS 100 ng/ml, 20 hours, PGE2 EIA kit
"pIC50 [1, 4]","pIC50 [2, 5]",SMILES,RAW264.7 cell viability by MTT assay [3],"pIC50 ([1]; RAW264.7, 20 h)","pIC50 ([2]; RAW264.7, 20 h)"
3.39,3.43,CC(C)=CCC/C(C)=C/CO [geraniol],–,–,–
–,–,CCCC=C1OC(=O)c2ccccc21 [butylidene phthalide],did not affect cell viability,3.39,4.30
3.53,4.57,CC(C)=CCCC(C)CCO (stereo not shown) [citronellol],–,–,–
